# Assay results from PMC6272669, “Protein Tyrosine Phosphatase 1B Inhibitors from the Roots of Cudrania tricuspidata” (Molecules, 2015).
# Target: T1, PTP1B (human, recombinant) (Homo sapiens, UniProt P18031)
# T1 construct: purchased ATGen Co., Ltd. (Gyeonggi-do, Korea)
# T1 sequence (P18031 1-435): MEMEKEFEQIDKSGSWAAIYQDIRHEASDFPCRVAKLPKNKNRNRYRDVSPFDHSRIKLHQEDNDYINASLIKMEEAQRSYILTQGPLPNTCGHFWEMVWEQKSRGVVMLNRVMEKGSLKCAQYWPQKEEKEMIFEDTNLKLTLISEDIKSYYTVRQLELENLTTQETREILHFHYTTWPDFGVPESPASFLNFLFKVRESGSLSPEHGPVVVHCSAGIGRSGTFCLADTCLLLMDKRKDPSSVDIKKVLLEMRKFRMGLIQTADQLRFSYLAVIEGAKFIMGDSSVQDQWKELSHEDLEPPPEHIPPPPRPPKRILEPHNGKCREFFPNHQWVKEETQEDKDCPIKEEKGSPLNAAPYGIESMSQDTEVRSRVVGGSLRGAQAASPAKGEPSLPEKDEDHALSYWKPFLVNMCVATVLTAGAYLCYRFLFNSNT
# Test: PTP1B inhibitory activity assay (p-NPP hydrolysis)
# Type: biochemical
# Settings: 1 mM p-NPP substrate, pH 6.0, 37.5 °C, 30 min; mean ± SD of triplicate experiments; read-out: PTP1B Inhibitory Effects (IC50 Values)
# Description: On the basis of these findings, we evaluated the inhibitory effects of the 16 isolated compounds on PTP1B activity. PTP1B enzyme (human, recombinant) was purchased from ATGen Co., Ltd. (Gyeonggi-do, Korea), and its activity was measured using p-nitrophenyl phosphate (p-NPP). The reaction mixture consisted of 50 mM Bis-Tris (pH 6.0), 2.0 mM EDTA, 5.0 mM dithiothreitol (DTT), PTP1B (0.04 μg), and 1.0 mM p-NPP, with or without test compounds. After incubation at 37.5 °C for 30 min, the reaction was stopped via the addition of 10 N NaOH. The production of p-nitrophenol (p-NP) was evaluated by measuring the absorbance at 405 nm. The non-enzymatic hydrolysis of 1.0 mM p-NPP was corrected by measuring the increase in absorbance at 405 nm in the absence of PTP1B enzyme.
# PTP1B (human, recombinant) was purchased from ATGen Co., Ltd. (Gyeonggi-do, Korea). The enzyme activity was measured in a reaction mixture containing 1 mM p-NPP in 50 mM Bis-Tris (pH 6.0), 2.0 mM EDTA, and 5.0 mM dithiothreitol (DTT). The reaction mixture was placed in a 37.5 °C for 30 min, followed by termination of the reaction with the addition of 10 N NaOH. The amount of p-NP produced was estimated by measuring the increase in absorbance at 405 nm. The non-enzymatic hydrolysis of 1.0 mM p-NPP was corrected by measuring the increase in absorbance at 405 nm obtained in the absence of PTP1B enzyme. Inhibition kinetics studies were performed in the presence or absence of compounds 1 and 13 with different concentrations of p-NPP. Data were fitted by nonlinear regression analysis according to a Michaelis-Menten kinetic model using GraphPad Prism 5.01.
row,IC50 [µM],Structure (SMILES)
1,1.9 ± 0.4,"C=CC(C)(C)c1c(OC)c(CC=C(C)C)c2oc3cc(O)c(O)cc3c(=O)c2c1O [Compound 7, cudracuspixanthone A]"
2,3.8 ± 0.5,"C=CC(C)(C)c1c(O)c(CC=C(C)C)c2oc3cc(O)c(O)cc3c(=O)c2c1O [Compound 6, macluraxanthone B]"
3,4.3 ± 0.6,"C=CC(C)(C)c1c(O)cc(O)c2c(=O)c3c(CC=C(C)C)c(O)c(O)cc3oc12 [Compound 4, cudratricusxanthone A]"
4,2.8 ± 0.6,CC(C)=CCc1c2c(c(O)c3c(=O)c4cc(O)c(O)cc4oc13)C(C)(C)C(C)O2 (stereo not drawn) [Compound 8]
5,12.3 ± 2.2,"CC(C)=CCc1c(O)cc2c(c1O)C(=O)C[C@@H](c1cc3c(cc1O)OC(C)(C)C=C3)O2 [Compound 14, euchrestaflavanone C]"
6,5.7 ± 1.5,"CC(C)=CCc1cc([C@@H]2CC(=O)c3c(cc(O)c(CC=C(C)C)c3O)O2)c(O)cc1O [Compound 13, cudraflavanone D]"
7,4.6 ± 0.8,"C=CC(C)(C)c1c(O)cc2oc3c(CC=C(C)C)c(O)c(O)cc3c(=O)c2c1O [Compound 5, cudraxanthone L]"
8,3 ± 0.6,"C=CC(C)(C)c1c(OC)cc2oc3cc(O)c(O)cc3c(=O)c2c1O [Compound 2, 1,6,7-trihydroxy-2-(1,1-dimethyl-2-propenyl)-3-methoxyxanthone]"
9,9.4 ± 2.9,"CC(C)=CCc1c(O)cc2oc(-c3ccc(O)cc3O)c(CC=C(C)C)c(=O)c2c1O [Compound 15, cudraflavone C]"
10,13.6 ± 3.3,"CC(C)=CCc1c(-c2ccc(O)cc2O)oc2c(CC=C(C)C)c(O)cc(O)c2c1=O [Compound 16, kuwanon C]"
11,3.5 ± 0.7,"CC(C)=CCc1c(O)c(O)cc2c(=O)c3c(O)c4c(cc3oc12)OC(C)C4(C)C (stereo not drawn) [Compound 9, cudraxanthone M]"
12,2 ± 0.4,"C=CC(C)(C)c1c2c(c3oc4cc(O)c(O)cc4c(=O)c3c1O)C=CC(C)(C)O2 [Compound 1, cudratricusxanthone N]"
13,3 ± 0.3,"C=CC(C)(C)c1c(O)cc(O)c2c(=O)c3cc(O)c(O)cc3oc12 [Compound 3, cudratricusxanthone L]"

# Target: T1, PTP1B (human, recombinant)
# Test: Enzyme kinetic study of PTP1B inhibition (Lineweaver-Burk plots)
# Type: biochemical
# Settings: Lineweaver-Burk plots: reduction in Vmax, no change in Km
# Description: To elucidate the characteristics of PTP1B inhibition by the prenylated xanthones and flavonoids, compounds 1 and 13 were selected for an enzyme kinetic study. The kinetic studies were conducted using different concentrations of compounds 1, 13, and p-NPP. The initial rate was determined on the basis of the rate of increase in absorbance at 405 nm. The Michaelis–Menten constant (Km) and maximal velocity (Vmax) of PTP1B were determined by Lineweaver–Burk Plot analysis for competitive inhibition and the intercept on the vertical axis for noncompetitive inhibition. […]
# Figure 2 Lineweaver-Burk plots for inhibition of PTP1B-catalyzed hydrolysis of p-NPP by compounds 1 (A) and 13 (B). Data are expressed as mean initial velocity for triplicate experiments (n = 3) at each substrate concentration.
# PTP1B (human, recombinant) was purchased from ATGen Co., Ltd. (Gyeonggi-do, Korea). The enzyme activity was measured in a reaction mixture containing 1 mM p-NPP in 50 mM Bis-Tris (pH 6.0), 2.0 mM EDTA, and 5.0 mM dithiothreitol (DTT). […] The amount of p-NP produced was estimated by measuring the increase in absorbance at 405 nm. The non-enzymatic hydrolysis of 1.0 mM p-NPP was corrected by measuring the increase in absorbance at 405 nm obtained in the absence of PTP1B enzyme. […]
row,Mode of PTP1B inhibition,Structure (SMILES)
1,noncompetitive,"CC(C)=CCc1cc([C@@H]2CC(=O)c3c(cc(O)c(CC=C(C)C)c3O)O2)c(O)cc1O [Compound 13, cudraflavanone D]"
2,noncompetitive,"C=CC(C)(C)c1c2c(c3oc4cc(O)c(O)cc4c(=O)c3c1O)C=CC(C)(C)O2 [Compound 1, cudratricusxanthone N]"
